From patent US20250171459A1, “2-METHYL-4',5'-DIHYDROSPIRO[PIPERIDINE-4,7'-THIENO[2,3-C]PYRAN] DERIVATIVES AS INHIBITORS OF APOL1 AND METHODS OF USING SAME” (Vertex Pharmaceuticals Incorporated, priority 2022, published 2025)

Molecular target: T1, APOL1 (Homo sapiens, UniProt O14791)
T1 sequence (O14791 1-398 S342G/I384M): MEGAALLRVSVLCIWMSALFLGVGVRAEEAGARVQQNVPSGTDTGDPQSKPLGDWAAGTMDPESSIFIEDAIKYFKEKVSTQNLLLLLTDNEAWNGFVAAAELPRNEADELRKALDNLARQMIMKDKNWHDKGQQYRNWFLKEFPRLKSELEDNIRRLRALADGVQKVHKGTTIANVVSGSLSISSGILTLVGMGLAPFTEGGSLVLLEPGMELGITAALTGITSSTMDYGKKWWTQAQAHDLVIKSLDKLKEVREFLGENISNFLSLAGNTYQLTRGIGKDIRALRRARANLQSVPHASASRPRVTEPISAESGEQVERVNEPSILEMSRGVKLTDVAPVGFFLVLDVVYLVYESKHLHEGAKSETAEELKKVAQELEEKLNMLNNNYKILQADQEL
Test: MultiTox-Fluor Multiplex Cytotoxicity Assay in tet-inducible APOL1 T-REx-HEK293 cells (cell rescue, ratio of dead to live cells)
Format: cell-based
Conditions: tet-inducible transgenic APOL1 T-REx-HEK293 cell lines, 50 ng/mL tet, 24 hours; read-out: IP50 (i.e., IC50 for cell proliferation)
How it was run: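 T-REx-HEK293 cells with tet-inducible APOL1 were treated with compound (10 μM top, 10-point 3-fold dilution, duplicate) plus 50 ng/mL tetracycline for 24 h at 37° C, in DMEM with 2% tet-free FBS. MultiTox-Fluor protease signals gave a dead/live ratio, normalized to no tet (100% viability) and tet alone (0%).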

| SMILES | IC50 |
| --- | --- |
| CCc1cc2c(s1)CCOC21CCN(Cc2cn(CC(CC)CO)nn2)C(C)C1 (stereo not drawn) [Compound 115] | < 0.1 µM |
| CCc1cc2c(s1)CCOC21CCN(Cc2cn(CC3CC(=O)N(CCOC)C3)nn2)C(C)C1 (stereo not drawn) [Compound 116] | 0.1 to 0.5 µM |
| CCc1cc2c(s1)CCOC21CCN(Cc2cn(CC(O)C3CCCO3)nn2)C(C)C1 (stereo not drawn) [Compound 117] | < 0.1 µM |
| CCc1cc2c(s1)CCO[C@@]21CCN(Cc2cn(CC3(C)COC3)nn2)[C@@H](C)C1 [Compound 118] | 0.1 to 0.5 µM |
| CCc1cc2c(s1)CCOC21CCN(Cc2cn(CC3(OCCO)CCOC3)nn2)C(C)C1 (stereo not drawn) [Compound 119] | < 0.1 µM |
| CCc1cc2c(s1)CCO[C@@]21CCN(Cc2cn(CC(C)(C)C(C)O)nn2)[C@@H](C)C1 (stereo partly drawn) [Compound 120] | 0.1 to 0.5 µM |
| CCc1cc2c(s1)CCO[C@@]21CCN(Cc2cn(CC(CO)CC3CCOCC3)nn2)[C@@H](C)C1 (stereo partly drawn) [Compound 121] | < 0.1 µM |
| CCc1cc2c(s1)CCO[C@@]21CCN(Cc2cn(CC(F)(F)C3(O)CCOCC3)nn2)[C@@H](C)C1 [Compound 122] | 0.1 to 0.5 µM |
| CCc1cc2c(s1)CCOC21CCN(Cc2cn(CC(O)C(C)(C)O)nn2)C(C)C1 (stereo not drawn) [Compound 123] | < 0.1 µM |
| CCc1cc2c(s1)CCOC21CCN(Cc2cn(CC(O)C(C)(C)O)nn2)C(C)C1 (stereo not drawn) [Compound 124] | < 0.1 µM |
| CCc1cc2c(s1)CCOC21CCN(Cc2cn(CC(O)C(C)(C)O)nn2)C(C)C1 (stereo not drawn) [Compound 125] | < 0.1 µM |
| CCc1cc2c(s1)CCO[C@@]21CCN(Cc2cn(C[C@H]3C[C@@H](O)C3)nn2)[C@@H](C)C1 [Compound 126] | < 0.1 µM |
| CCc1cc2c(s1)CCO[C@@]21CCN(Cc2cn(C3(CO)CC3)nn2)[C@@H](C)C1 [Compound 127] | 0.5 to 1 µM |
| CCc1cc2c(s1)CCO[C@@]21CCN(Cc2cn(C3CC(CO)N3)nn2)[C@@H](C)C1 (stereo partly drawn) [Compound 128] | 0.1 to 0.5 µM |
| CCc1cc2c(s1)CCO[C@@]21CCN(Cc2cn(CCOC)nn2)[C@@H](C)C1 [Compound 129] | 0.1 to 0.5 µM |
| CCc1cc2c(s1)CCO[C@@]21CCN(Cc2cn(C(C)COC)nn2)[C@@H](C)C1 (stereo partly drawn) [Compound 130] | 0.1 to 0.5 µM |
| CCc1cc2c(s1)CCO[C@@]21CCN(Cc2cn(CC3CCOC3)nn2)[C@@H](C)C1 (stereo partly drawn) [Compound 131] | 0.1 to 0.5 µM |
| CCc1cc2c(s1)CCO[C@@]21CCN(Cc2cn([C@H]3C[C@@](C)(O)C3)nn2)[C@@H](C)C1 [Compound 132] | 0.1 to 0.5 µM |
| CCc1cc2c(s1)CCOC21CCN(Cc2cn(CC(O)CC)nn2)C(C)C1 (stereo not drawn) [Compound 133] | < 0.1 µM |
| CCc1cc2c(s1)CCO[C@@]21CCN(Cc2cn(CC(C)(CO)CO)nn2)[C@@H](C)C1 [Compound 134] | < 0.1 µM |
| CCc1cc2c(s1)CCO[C@@]21CCN(Cc2cn(CC(C)(C)CO)nn2)[C@@H](C)C1 [Compound 135] | 0.1 to 0.5 µM |
| CCc1cc2c(s1)CCO[C@@]21CCN(Cc2cn(CC3COCCO3)nn2)[C@@H](C)C1 (stereo partly drawn) [Compound 136] | < 0.1 µM |
| CCc1cc2c(s1)CCOC21CCN(Cc2cn(CC(COC)OC)nn2)C(C)C1 (stereo not drawn) [Compound 137] | < 0.1 µM |
| CCc1cc2c(s1)CCOC21CCN(Cc2cn(CC(O)COC)nn2)C(C)C1 (stereo not drawn) [Compound 138] | < 0.1 µM |
| CCc1cc2c(s1)CCO[C@@]21CCN(Cc2cn(CC(CO)OC)nn2)[C@@H](C)C1 (stereo partly drawn) [Compound 139] | < 0.1 µM |
| CCc1cc2c(s1)CCO[C@@]21CCN(Cc2cn(C[C@@H](C)O)nn2)[C@@H](C)C1 [Compound 140] | < 0.1 µM |
| CCc1cc2c(s1)CCO[C@@]21CCN(Cc2cn(C[C@H](C)O)nn2)[C@@H](C)C1 [Compound 141] | 0.1 to 0.5 µM |
| CCc1cc2c(s1)CCO[C@@]21CCN(Cc2cn(C[C@H]3C[C@H](O)C3)nn2)[C@@H](C)C1 [Compound 142] | 0.1 to 0.5 µM |
| CCc1cc2c(s1)CCOC21CCN(Cc2cn(CC(O)CO)nn2)C(C)C1 (stereo not drawn) [Compound 143] | < 0.1 µM |
| CCc1cc2c(s1)CCO[C@@]21CCN(Cc2cn([C@H]3CC[C@@H]3O)nn2)[C@@H](C)C1 [Compound 144] | 0.1 to 0.5 µM |
